According to patent US6399622B1, “Method for diagnosing and alleviating the symptoms of chronic fatigue syndrome” (priority 1997, dated 2002):
Read-outs that look alike come from different tables or passages of the source.

Tests used:
[1] = test system: Epstein-Barr virus persistent infection; assay: Example 2: valacyclovir treatment of EBV-isolated CFS patients; format: in vivo, human
Excerpt: EBV-Isolated CFS Patients—Test of Antiviral Treatment. […] EBV active infection was documented by EBV VCA IgM antibodies and/or EBV EA elevated antibody titers. All of these patients had their energy levels reduced by 50% or more and were partially or entirely non-functional, unable to work or maintain a household. These ten patients had no diseases or complicating conditions which could have accounted for their chronic fatigue syndrome symptoms and they had no prior psychiatric diseases.
Each patient's functional status was recorded as a statistically validated energy index (EI). At each out-patient visit, subjective evaluation of the patient's functional status was recorded using this energy index. The energy index records the average subjective vitality of the patient in the immediate 14 days prior to this specific out-patient visit. When minor illnesses such as the common cold complicated a visit, evaluation of the EI for a patient was delayed until the intercurrent problem receded.
Prior to the initiation of the antiviral treatment and following approximately six months of treatment, objective evaluations of the ability to work and the energy index of each of the ten patients was analyzed.
Pursuant to the energy index, a patient with a 0 energy index (EI) is bedridden. With an energy index of 1 or 2, any activity by the patient leads to overwhelming, incapacitating fatigue. Such patients are generally light-headed, unable to think clearly, and concentration is difficult for any extended period of time (over 60 minutes). Left-sided chest aches, palpitations, sore throats and feverishness are frequent. These patients may be out of bed for intermittent, brief periods of the day.
Patients with an energy index between 3 and 5 can, with great effort, be out of bed for several hours each day doing non-physical activities. […] These patients express variable light-headedness, inability to think clearly or read normally. Left-sided chest aches, palpitations, sore throats and feverishness occur often. Patients within this energy range cannot perform a 40 hour sedentary job or maintain the duties of a homemaker including such activities as cooking and cleaning. In general, CFS patients have an energy index of 5 or less.
Patients with an energy index between 6 and 9 can assume normal activities and maintain a 40 hour work week and, with pacing, maintain a household. […] These patients can do light physical work or exercise in moderation without fatigue.
Patients with an energy index of 10 have normal energy levels, stamina and a sense of well-being. Light-headedness, difficulties in concentrating and reading ability and chest aches, palpitations, sore throats and feverishness are absent.
During the initial and final clinical visits, each CFS patient was studied to determine the IgM antibodies to the EBV viral capsid antigen (VCA), total early antigens (EA), and enzyme immunoassays (ELISA) to HCMV IgM and HCMV ELISA IgG titers. An IgM EBV VCA antibody titer indicates infectious lytic EBV multiplication within the most recent 3 month period. During the EBV infectious lytic cycle, antigen is expressed which can be divided into a diffuse (EAD) complex and a cytoplasmic restricted EAR complex (EAR). As a result, each patient's EAD was assayed. The presence of EBV EA antibody indicates current EBV multiplication. Likewise, an elevated […] IgM antibody indicates recent EBV or HCMV multiplication, respectively. The EBV VCA antibody IgM titers were done by the ELISA method. As a control group, similar serum antibody titers were measured in 20 non-CFS individuals. In the non-CFS control group, the mean HCMV IgG titer was 240.
Dosage. Each of the patients was administered an oral dose of valacyclovir at 10 mg/kg by mouth every six hours.
Demographics. There were nine women and one person. Their ages ranged from 20-67 years. Their mean age was 43.3 years. […]

herpes viruses = conditions: cited from earlier work
[2] = in vivo, po, 1000 mg; cited from earlier work
HCMV = format: in vivo, human; conditions: for mean energy index: six months later
Protocol: HCMV-Isolated CFS Patients-Test of Antiviral Treatment. A study was conducted to assess the possible efficacy of ganciclovir treatment on a subset of CFS patients with (1) high HCMV IgG ELISA antibody titers; (2) minimal/no serologic evidence of concurrent EBV multiplication; and (3) oscillating ECG abnormalities at Holter monitoring. Patients. From March, 1993, through June, 1994, 3 men and 15 women with the mean age of 39.7 plus or minus 7.7 years, with CFS (as defined by the USA, Centers for Diseases Control criteria), were recruited from a single infectious diseases referral center in Birmingham, Mich. Approximately 50 patients with chronic fatigue syndrome were screened for inclusion in this study. […] In these 18 CFS patients, baseline standard 12 lead ECG, 2-D echocardiogram, rest-stress myocardial perfusion (thallium 201 or Tc-99 cardiolite) and rest-stress multiple […] acquisitions (MUGA) studies as well as coronary angiography excluded coronary artery disease. HCMV ELISA and HCMV ELISA IgG titers, as well as EBV capsid antigen (VCA), ELISA IgM and EBV total early antigens (EA) immunofluorescent antibody titers were assayed. Additionally, buffy coats, urine and myocardial biopsies were tested for infectious HCMV. […] Holter monitoring, MUGA studies and endomyocardial biopsies in these patients were done. Holter monitors, MUGA studies and endomyocardial biopsies were read blindly without knowledge of the patient. Also readings were repeated by at least one, and often several, other physician readers. A patient's 24-hour Holter monitor was considered positive if T-waves became intermittently inverted or flat. Labile T-wave abnormalities at Holter monitoring were present in each CFS patient. In addition to the Holter monitoring, at each outpatient visit, a subjective evaluation of the patient's functional status was recorded using the energy index (EI) as previously described. Infusions of Ganciclovir. After placement of a peripherally inserted central catheter (PICC) or a groshong catheter, ganciclovir was given intravenously in a dose of 5 mg. per kg. at 12-hour intervals for 30 days. Patients were seen once a week by the same physician and complete blood counts, SMA values and urinalysis were conducted. […] They were advised to avoid exercise, fatigue and alcohol and engage in regular sleeping patterns. Statistical Methods. Eighteen patients, 3 men and 15 women, all with CFS, with a mean age of 39.7 ranging from 29 to 51 years, were evaluated. Statistical significance between patients meeting the criteria for the HCMV subset and other patients with CFS were evaluated using tests of homogeneity of chi-square analysis and the two-tailed Fisher's exact test for bivariate analysis of dichotomous data.

[3] = test system: human cytomegalovirus (nonstructural gene products p52 and CM2); assay: Example 4: Copalis antibody titers and fatigue after ganciclovir in HCMV CFS patients; format: in vivo
Excerpt: This Copalis® method to CM2 and p52 measures IgM antibodies to HCMV non-structural gene products. The non-structural gene products are UL44, UL57. These gene products have been produced in E-coli. The UL44 and UL57 refer to the open reading frames (ORF) of the human cytomegalovirus genome. The UL44 has the function of a polymerase processivity factor known as p52. The UL57 is the second gene product which may be measured by the Copalis® method and its function is as a single-stranded (ss) DNA binding protein CM2. These are nonstructural gene products which are extruded from a cell with incomplete human cytomegalovirus multiplication. The Copalis® method measures antibodies to these two gene products with the purified antigens produced in E-coli.
The Copalis® CMV Mutliplex assay is a homogenous test for the simultaneous determination of acute infection stages or immune status to Cytomegalovirus using coupled particle light scattering. Sized microparticles, coated with one of three antigens (p52, CM2, and CMV viral particle (VP)) are dried in the reaction cup. Early phase IgM antibodies are detected by both the CM2 and the p52 antigens. Antibody response to the CM2 antigen but not to the p52 antigen continues through the convalescent stage of acute infection. Antibodies to the VP may appear during acute infection but shall persist during life. Reactivity just (sucrose-density purified tissue culture produced complete HCMV cytomegalovirus) to the VP is characteristic of prior infection (indicative of immune status). Antibody detection, made by the Copalis® Immunoassay System, is reported qualitatively for the IgM analytes and semi-quantitatively for the total analyte.
The Copalis® CMVplex Antibody Assay is based on the principle of antibody dependent particle aggregation as measured by the amount of light scattered. A typical antibody reactivity pattern (IgM and/or IgG) in the patient sample allows diagnosis of the infection as seronegative, acute or past infections. The CMVplex Test Cup has polystyrene microparticles of three sizes each coated with different specific antigens dried in the bottom. The Test Cup is reconstituted with reaction buffer by the instrument. The sample is then transferred into the reaction well and the mixture is agitated for 10 minutes. Upon completion of the agitation, the reaction mixture is transferred to the optical system for analysis.
The level of aggregation is determined by discrimination of particle sizes and unreacted particles (monomers) as detected by the optical system. The quantity of assay particles remaining as monomers is compared to that of an unreacted baseline negative calibrator. A ratio is established between the counts of the two monomer particles. This ratio is reported as the Copalis® Test Result (CTR). The CTR is then converted into a numerical unit, Copalis® Index (CI), which determines the cutoff thresholds for each marker. Interpretation of results is based upon the CI. Results for the IgG marker (VP) are reported semi-quantitatively and qualitatively for the IgM markers (p52 and CM2).
Results of Copalis® antibody testing in patients with the U.S. CDC-Chronic Fatigue Syndrome and various other patients with severe onset of […] fatigue. Group 1) Eight patients were studied with the chronic fatigue syndrome. They are six women and […] with ages ranging from 32 through 48. They had IgG antibodies to human cytomegalovirus. […] They would be evaluated as having past infection. […]

[4] = eight CFS patients, intravenous followed by oral ganciclovir

For `CC(C)[C@H](N)C(=O)OCCOCn1cnc2c(=O)[nH]c(N)nc21` [valacyclovir], the “mean energy index (EI) at completion of therapy” value ([1]; 10 EBV CFS patients, 10 mg/kg by mouth every six hours, about six months, pre-therapy mean EI 4.7) was 7.5, the “median energy index (EI) at completion of therapy” value ([1]; 10 EBV CFS patients, about six months of treatment) was 7 and the “range of energy index (EI) at completion of therapy” value ([1]; 10 EBV CFS patients, pre-therapy range 3.5 to 5.5) was 6-10. The “patients with light-headedness, unsteadiness, inability to think well at completion of the trial” value ([1]; at beginning 9 out of 10) was “one of ten”, the “patients with palpitations at completion of the trial” value ([1]; at beginning five out of ten) was “three out of ten” and the “patients with positive EA antibody titers (≧10) at completion of the trial” value ([1]; at beginning seven out of ten) was “eight out of ten”. The “patients with EBV VCA IgM positive titers at completion of the trial” value ([1]; before trial five out of ten) was “two out of ten”, the “ability to work / activity level following treatment” value ([1]; each of the ten patients, after approximately six months) was “able to fully engage in his/her activity level at work or home” and the “patients with chest pain at completion of the trial” value ([1]; prior to therapy five out of ten) was “one out of ten”.
In the case of `O=C(O)P(=O)(O)O` [Foscarnet sodium, trisodium phosphonoformate], the “activity against herpes viruses” value (herpes viruses; in vitro and in vivo) is given as “potent in vitro and in vivo activity”.
In the case of `CC(C)[C@H](N)C(=O)OCC(CO)OCn1cnc2c(=O)nc(N)[nH]c21` (stereo partly drawn) [valganciclovir], the “bioavailability (of ganciclovir)” value [2] is listed as 60.9%.
In the case of `Nc1nc2c(ncn2COC(CO)CO)c(=O)[nH]1` [ganciclovir, 9-(1,3-dihydroxy-2-propoxymethyl) guanine], the mean energy index (HCMV; Group A (13 improved patients), start mean 3) is reported as 7, the “patients with improved MUGA test results (lesser tardokinesis, hypokinesis or left ventricular dilatation)” value (HCMV; Group A, after treatment) is reported as 3 patients and the “patients with previously abnormal myocardial dynamics reverted to normal (MUGA)” value (HCMV; Group A, after treatment) is reported as 3 patients. The “patients who resumed normal pre-CFS activity levels” value (HCMV; Group B) was “none”, the mean energy index (HCMV; Group B (5 not improved patients), start mean 2) was 4 and the fatigue (HCMV; case study) was “disappeared”. For the same molecule, the “maximal cardiac ejection fraction” value (HCMV; case study, a further five months later, from 54%) was 68%, the “resting ejection fraction (stress MUGA)” value (HCMV; case study, five months after 30 days i.v. treatment, before 40%) was 54% and the “increase of resting ejection fraction” value (HCMV; case study, from 40% to 54%) was 14%. For the same molecule, the serum creatinine (HCMV; human, in vivo) was “transient increase in serum creatinine”, the adverse events (HCMV; human, in vivo, iv) was “no adverse events or symptoms attributable to ganciclovir” and the patients improved (HCMV; of 18 CFS patients, 5 mg per kg i.v. at 12-hour intervals for 30 days) was 13 patients. For the same molecule, the “MUGA study at follow up” value (HCMV; one Group B patient with initial normal MUGA, 6 months after treatment) was “showed septal hypokinesis”, the clinical response (HCMV; small preliminary subset of CFS patients with HCMV infection, no concurrent EBV multiplication) was “salutary response” and the “activity level after antiviral treatment” value (HCMV; the 13 patients in Group A) was “resumed their normal pre-CFS activity levels”. The “bioavailability (of ganciclovir)” value [2] was 5.6%, the “antibodies to nonstructural gene products p52 and CM2 (Copalis)” value [3, 4] was “became markedly lower and disappeared” and the fatigue [3, 4] was “remarkably lessened”. The clinical outcome ([3]; person positive only by p52, intravenous followed by oral ganciclovir) was “improved remarkably”, the cardiac function ([3]; person with congestive heart failure and diabetes mellitus, intravenous) was “improved” and the “CM2 antibodies (Copalis)” value ([3]; two CFS patients with high CM2, no elevated p52, intravenous followed by oral ganciclovir) was “lessened or disappeared”.
For `O=c1[nH]c(=O)n([C@@H]2O[C@H](CO)[C@@H](O)[C@@H]2O)cc1/C=C/Br` [bromovinyl arabinosyl uracil], the “inhibition of herpes viruses” value (herpes viruses; herpes simplex virus Type 1, Epstein-Barr virus and VZV) is listed as “significant inhibition”.
